Values quoted from earlier work in patent publication US20020102237A1, “Compositions and methods for hepatitis treatment” (priority 2000, published 2002).

System: hepatitis C infection

Row | Substance | patients responding with normalization of alanine aminotransferase (ALT) (hepatitis C infection, 3 million units subcutaneously three times weekly for six months) | relapse of responders upon discontinuation of therapy (hepatitis C infection, after standard six-month therapy) | response rate (long term efficacy) (chronic hepatitis C, interferon with or without Ribavirin)
1 | alpha-interferon | approximately 50% | half of those responding relapse | 
2 | interferon |  |  | about 25%
